US11446378B2, “Inhibitors of ephrin B1 for tumor treatment” (SANFORD HEALTH, priority 2017, dated 2022)

System: PC12 cells
Assay: PC12 neurite outgrowth assay (β-III tubulin quantification by CX7)
Assay type: cell-based, rat
Procedure: To test our hypothesis that tumor released exosomes induce neo-neurogenesis, we utilized PC12 cells, a rat pheochromocytoma cell line, as an in vitro screen. When stimulated with NGF (100 ng/ml), PC12 cells differentiate into neuron-like cells and extend neurites. We collected 10 ml of blood along with matched tumor tissue from three head and neck cancer patients (patient samples Pt1, Pt2, Pt3). We similarly collected blood from 3 healthy volunteers (Nl1, Nl2, Nl3) as well as adult tonsil tissue (TL). The tonsil was chosen as control tissue since the majority of HPV+ OPSCCs arise in the tonsil. Exosomes were purified, quantified by BCA protein assay and further validated by western blot analysis for the exosome markers CD9 and CD81 (FIG. 1E). To test whether they harbor neurite outgrowth activity, PC12 cells were treated with 3 μg exosomes, fixed 48 hours later and immunostained for β-III tubulin. Neurite outgrowth was quantified using the CellInSight™ CX7 High Content Analysis Platform and the number of neurites compared. The exosome yield from patient Pt1 was low allowing for analysis of only one replicate while quantities from Pt2 and Pt3 were sufficient for technical replicates. […]
The CellInSight CX7 High Content Analysis Platform performs automated cellular imaging for quantitative microscopy which was utilized to quantify neurite outgrowth. […]

Substance: NGF: recombinant nerve growth factor, positive control for PC12 neurite outgrowth
- neurite outgrowth (number of β-III tubulin positive neurites) (PC12 cells fixed 48 hours after treatment, 3 μg exosomes or NGF 100 ng/ml): robustly
- neurite outgrowth (total number of beta-III tubulin positive neurites per well) (PC12 cells, 24 hour stimulation, recombinant NGF 100 ng/ml set at 100%): robust neurite outgrowth
